{"source": "patent US20260232578A1", "about": "“COMPOSITIONS AND METHODS FOR TRANSMUCOSAL ABSORPTION” (Tonix Pharma Limited, priority 2012, published 2026)", "key": {"[1]": {"assay": "Pharmacokinetics of sublingual cyclobenzaprine HCl tablets with and without K2HPO4 (Example 10)", "type": "in vivo, beagle dog", "conditions": "2.4 mg sublingual tablet with basifying agent", "description": "Pharmacokinetic parameters were then calculated and compared.\nFor sublingual dosing, dogs were given propofol and were put in a lying position (ventral decubitis). The mouth was gently opened and the tablet was placed under the tongue. The tongue was then immediately replaced in its initial position and the mouth was closed. The dog was left in the same position until waking. […] After the washout period of two weeks, dogs were sedated in the same way and given a single sublingual dose of the formulation without basifying agent. Blood samples after both types of treatment were taken pre-dose and at 5, 10, 20, 30, and 45 minutes, and at 1, 2, 3, 4, 6, 8, and 10 hours after dose administration. Blood was taken from the jugular vein.\nThe method involved liquid-liquid extraction with hexane. The extracts were injected using an HPLC system and an API4000® (Applied Biosystems) for MS/MS detection, with an “Onyx monolithic Phenomenex C18 100×3.0 mm” column.\nSublingual administration was performed by placing the control tablet or tablet with K2HPO4 under the tongue when female beagles were slightly anesthetized with propofol."}, "muscarinic M2 receptor": {"target": "muscarinic M2 receptor (Homo sapiens, UniProt P08172)", "sequence (P08172 whole entry)": "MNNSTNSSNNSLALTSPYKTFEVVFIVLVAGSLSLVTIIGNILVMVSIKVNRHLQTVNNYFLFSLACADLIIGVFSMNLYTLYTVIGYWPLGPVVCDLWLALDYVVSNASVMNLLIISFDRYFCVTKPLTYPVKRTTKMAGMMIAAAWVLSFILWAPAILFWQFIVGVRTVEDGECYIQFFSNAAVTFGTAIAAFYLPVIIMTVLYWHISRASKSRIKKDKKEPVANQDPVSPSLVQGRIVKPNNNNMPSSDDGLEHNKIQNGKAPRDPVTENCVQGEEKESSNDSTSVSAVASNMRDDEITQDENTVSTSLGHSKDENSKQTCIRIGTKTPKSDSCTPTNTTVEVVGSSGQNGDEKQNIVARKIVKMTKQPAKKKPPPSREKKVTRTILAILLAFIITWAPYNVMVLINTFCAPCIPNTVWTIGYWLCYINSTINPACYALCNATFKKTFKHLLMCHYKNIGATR", "assay": "G-protein-dependent signal transduction, intracellular Ca2+ mobilization"}}}
{"smiles": "CN(C)CCC=C1c2ccccc2C=Cc2ccccc21", "note": "[cyclobenzaprine, 3-(5H-dibenzo[a,d]cyclohepten-5-ylidene)-N,N-dimethyl-1-propanamine]", "values": [{"measurement": "dbmnAUC0-0.75 h", "setting": "[1]; Beagles 12.5 kg", "result": 0.000708, "unit": "kg·h/mL"}, {"measurement": "dnAUC0-0.75 h", "setting": "[1]; Beagles", "result": "5.65e-05", "unit": "h/mL"}]}
{"smiles": "CNCCC=C1c2ccccc2C=Cc2ccccc21", "note": "[norcyclobenzaprine, 3-(5H-dibenzo[a,d]cyclohepten-5-ylidene)-N-methyl-1-propanamine]", "values": [{"measurement": "IC50", "setting": "muscarinic M2 receptor", "result": 33, "unit": "nM"}]}
